For the assay, the system named is L1210 leukemia ip in BDF1 mice, survival T/C. Description: NCI In Vivo Anticancer Drug Screen. Data for tumor model L1210 Leukemia (intraperitoneal) in B6D2F1 (BDF1) mice. Conditions: endpoint: mean survival time, higher = longer survival. The method, boiled down: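 Antitumor effect is assessed in tumor-bearing animals. Survival in the compound arm is compared with a vehicle-dosed control arm and expressed as their quotient.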

Where [1] appears, read: dose: 100.0 mg/kg/injection, schedule: Q04DX003 (ip), vehicle: saline with Tween-80.
[2] abbreviates: dose: 200.0 mg/kg/injection, schedule: Q04DX003 (ip), vehicle: saline with Tween-80.
[3] abbreviates: dose: 400.0 mg/kg/injection, schedule: Q04DX003 (ip), vehicle: saline with Tween-80.
Where [4] appears, read: dose: 100.0 mg/kg/injection, schedule: Q01DX009 (ip), vehicle: saline with Tween-80.
Where [5] appears, read: dose: 200.0 mg/kg/injection, schedule: Q01DX009 (ip), vehicle: saline with Tween-80.
The mark [6] stands for this setting: dose: 400.0 mg/kg/injection, schedule: Q01DX009 (ip), vehicle: saline with Tween-80.
Where [7] appears, read: dose: 100.0 mg/kg/injection, schedule: Q01DX001 (ip), vehicle: saline.
The mark [8] stands for this setting: dose: 200.0 mg/kg/injection, schedule: Q01DX001 (ip), vehicle: saline.
[9] abbreviates: dose: 400.0 mg/kg/injection, schedule: Q01DX001 (ip), vehicle: saline.
Setting [10] is: dose: 100.0 mg/kg/injection, schedule: Q01DX001 (ip), vehicle: Klucel (hydroxypropylcellulose) (HPC).
The mark [11] stands for this setting: dose: 400.0 mg/kg/injection, schedule: Q01DX001 (ip), vehicle: Klucel (hydroxypropylcellulose) (HPC).
Where [12] appears, read: dose: 100.0 mg/kg/injection, schedule: Q01DX009 (ip), vehicle: saline.
[13] abbreviates: dose: 100.0 mg/kg/injection, schedule: Q04DX003 (ip), vehicle: saline.
[14] abbreviates: dose: 200.0 mg/kg/injection, schedule: Q01DX009 (ip), vehicle: saline.
Setting [15] is: dose: 200.0 mg/kg/injection, schedule: Q04DX003 (ip), vehicle: saline.
The mark [16] stands for this setting: dose: 100.0 mg/kg/injection, schedule: Q01DX001 (ip), vehicle: carboxymethylcellulose (CMC).
Where [17] appears, read: dose: 200.0 mg/kg/injection, schedule: Q01DX001 (ip), vehicle: carboxymethylcellulose (CMC).
Where [18] appears, read: dose: 400.0 mg/kg/injection, schedule: Q01DX001 (ip), vehicle: carboxymethylcellulose (CMC).
The mark [19] stands for this setting: dose: 400.0 mg/kg/injection, schedule: Q01DX009 (ip), vehicle: saline.
The mark [20] stands for this setting: dose: 400.0 mg/kg/injection, schedule: Q04DX003 (ip), vehicle: saline.

Each structure is given as a SMILES string. Where “and” joins values, the source holds several entries; their conditions need not be identical. Equal values may be shown once. Inconclusive results and toxic doses are left out.

Turning to `O=CNc1ccc(Br)cc1`, the T/C runs as follows: (dose: 50.0 mg/kg/injection, schedule: Q04DX003 (ip), vehicle: Klucel (hydroxypropylcellulose) (HPC)) 97 % of control; (dose: 100.0 mg/kg/injection, schedule: Q01DX009 (ip), vehicle: Klucel (hydroxypropylcellulose) (HPC)) 98 % of control; (dose: 100.0 mg/kg/injection, schedule: Q04DX003 (ip), vehicle: Klucel (hydroxypropylcellulose) (HPC)) 97 % of control; (dose: 200.0 mg/kg/injection, schedule: Q01DX009 (ip), vehicle: Klucel (hydroxypropylcellulose) (HPC)) 98 % of control; (dose: 200.0 mg/kg/injection, schedule: Q04DX003 (ip), vehicle: Klucel (hydroxypropylcellulose) (HPC)) 100 % of control.

Turning to `CCc1c(C/C(=N/O)C(=O)O)[nH]c(=S)[nH]c1=O`, the T/C runs as follows: under setting [1], 97 % of control; under setting [2], 97 % of control; under setting [3], 96 % of control.

Turning to `Brc1ccc(Oc2ccccc2)cc1`, the T/C is 101 % of control under setting [4]; 102 % of control under setting [1]; 95 % of control under setting [5]; 97 % of control under setting [2]; 97 % of control under setting [6]; 108 % of control under setting [3].

On to `CC(=O)C(O)COP(=O)(O)O` (stereo not drawn), for which the T/C runs as follows: (dose: 50.0 mg/kg/injection, schedule: Q01DX001 (ip), vehicle: saline) 96 % of control; under setting [7], 100 % of control; under setting [8], 102 % of control; under setting [9], 100 % of control.

Turning to `O=C(NC1CCCCC1)NS(=O)(=O)c1ccc2c(c1)CCC2`, the T/C runs as follows: under setting [7], 100 % of control; under setting [8], 102 % of control; under setting [9], 96 % of control.

Consider `CC(C)CCC[C@@H](C)[C@H]1CC[C@H]2[C@@H]3CC[C@H]4C[C@H]5N[C@H]5C[C@]4(C)[C@H]3CC[C@]12C`, for which the T/C is, setting by setting: under setting [10], 93 % of control; under setting [11], 90 % of control.

As to `COc1ccc(C(=O)/C=C/c2cccc3ccccc23)cc1`, the T/C was 86 % of control (dose: 100.0 mg/kg/injection, schedule: Q04DX002 (ip), vehicle: saline with Tween-80); 86 % of control (dose: 200.0 mg/kg/injection, schedule: Q04DX002 (ip), vehicle: saline with Tween-80); 86 % of control (dose: 400.0 mg/kg/injection, schedule: Q04DX002 (ip), vehicle: saline with Tween-80).

In the case of `CC(C(=O)c1ccccc1)C(Cl)c1ccccc1` (stereo not drawn), the T/C reads like this: under setting [4], 102 % of control; under setting [1], 104 % of control; under setting [5], 106 % of control; under setting [2], 107 % of control; under setting [6], 102 % of control; under setting [3], 104 % of control.

Take `CC(CO)NC(=O)C1C=C2c3cccc4[nH]cc(c34)CC2N(C)C1` (stereo not drawn): the T/C is 114 % of control (dose: 3.12 mg/kg/injection, schedule: Q04DX003 (ip), vehicle: saline); 114 % of control (dose: 6.25 mg/kg/injection, schedule: Q04DX003 (ip), vehicle: saline); 109 % of control (dose: 12.5 mg/kg/injection, schedule: Q01DX009 (ip), vehicle: saline); 114 % of control (dose: 12.5 mg/kg/injection, schedule: Q04DX003 (ip), vehicle: saline); 95 % of control (dose: 25.0 mg/kg/injection, schedule: Q01DX009 (ip), vehicle: saline); 101 % of control (dose: 25.0 mg/kg/injection, schedule: Q04DX003 (ip), vehicle: saline). Also, the T/C (dose: 50.0 mg/kg/injection, schedule: Q01DX009 (ip), vehicle: saline) was 96 % of control; the T/C (dose: 50.0 mg/kg/injection, schedule: Q04DX003 (ip), vehicle: saline) was 103 % of control; the T/C under setting [12] was 95 % of control; the T/C under setting [13] is 100 % of control; the T/C under setting [14] is 96 % of control; the T/C under setting [15] is 102 % of control.

`O=C(O)C[S+]1CCSCC1`: the T/C reads like this: (dose: 100.0 mg/kg/injection, schedule: Q04DX002 (ip), vehicle: saline) 105 % of control; (dose: 200.0 mg/kg/injection, schedule: Q04DX002 (ip), vehicle: saline) 105 % of control; (dose: 400.0 mg/kg/injection, schedule: Q04DX002 (ip), vehicle: saline) 105 % of control.

Regarding `CCOC(=O)/C(C#N)=C\c1cc(O)c(O)c(OC)c1`, the T/C by setting is: (dose: 50.0 mg/kg/injection, schedule: Q01DX001 (ip), vehicle: carboxymethylcellulose (CMC)) 100 % of control; under setting [16], 92 % of control; under setting [17], 97 % of control; under setting [18], 103 % of control.

Consider `CSc1ncc2c(=O)n(-c3ccccc3)[nH]c2n1`, for which the T/C reads like this: under setting [10], 103 % of control; (dose: 200.0 mg/kg/injection, schedule: Q01DX001 (ip), vehicle: Klucel (hydroxypropylcellulose) (HPC)) 97 % of control; under setting [11], 87 % of control.

`Cc1n[nH]c(=S)n1C`: the T/C was 108 % of control under setting [13] and 113 % of control under setting [15].

In the case of `NC(CNO)C(=O)O` (stereo not drawn), the T/C reads like this: under setting [12], 101 % of control; under setting [13], 103 % of control; under setting [14], 103 % of control; under setting [15], 97 % of control; under setting [19], 110 % of control; under setting [20], 111 % of control.

Take `N#C/C(=C\c1cc(Br)cc(Br)c1O)c1ccc([N+](=O)[O-])cc1`: the T/C by setting is: under setting [1], 97 % of control; under setting [2], 87 % of control; under setting [3], 102 % of control.

For the compound `COc1ccc(OC)c(NC(=O)CS)c1`, the T/C was 97 % of control under setting [1] and 91 % of control under setting [2].

For `O=CC(S)CO` (stereo not drawn), the T/C is 103 % of control under setting [8]; 97 % of control under setting [9]; 108 % of control (dose: 800.0 mg/kg/injection, schedule: Q01DX001 (ip), vehicle: saline).

With `CCC(=O)OCC(C)([N+](=O)[O-])[N+](=O)[O-]`, the T/C under setting [4] was 106 % of control; the T/C under setting [1] is 97 % of control; the T/C under setting [5] is 97 % of control; the T/C under setting [2] is 97 % of control; the T/C under setting [6] is 101 % of control; the T/C under setting [3] was 109 % of control.

As to `CC(CNC(=O)CCOS(C)(=O)=O)NC(=O)CCOS(C)(=O)=O` (stereo not drawn), the T/C is, setting by setting: (dose: 22.0 mg/kg/injection, schedule: Q01DX Z (ip), vehicle: carboxymethylcellulose (CMC)) 104 % of control; (dose: 33.0 mg/kg/injection, schedule: Q01DX Z (ip), vehicle: carboxymethylcellulose (CMC)) 111 % of control; (dose: 50.0 mg/kg/injection, schedule: Q01DX Z (ip), vehicle: carboxymethylcellulose (CMC)) 100 % of control and 113 % of control; (dose: 76.0 mg/kg/injection, schedule: Q01DX Z (ip), vehicle: carboxymethylcellulose (CMC)) 107 % of control; (dose: 113.0 mg/kg/injection, schedule: Q01DX Z (ip), vehicle: carboxymethylcellulose (CMC)) 153 % of control; (dose: 170.0 mg/kg/injection, schedule: Q01DX Z (ip), vehicle: carboxymethylcellulose (CMC)) 113 % of control.

As for `Nc1cccc2c1/C(=N/O)c1ccccc1-2`, the T/C is, setting by setting: under setting [16], 98 % of control; under setting [17], 100 % of control; under setting [18], 98 % of control.

Turning to `Oc1cc2c(cc1O)C1c3ccc(O)c(O)c3OCC1(O)C2` (stereo not drawn), the T/C is 102 % of control under setting [12]; 110 % of control under setting [13]; 104 % of control under setting [14]; 104 % of control under setting [15]; 101 % of control under setting [19]; 102 % of control under setting [20].

Consider `Clc1ccc(C2ON2C2CCCCC2)cc1` (stereo not drawn), for which the T/C under setting [16] was 95 % of control, the T/C under setting [17] was 101 % of control and the T/C under setting [18] was 101 % of control.

For `Cc1cc(C)c(N2C(=O)C=CC2=O)c(C)c1`, the T/C is, setting by setting: (dose: 0.39 mg/kg/injection, schedule: Q01DX009 (ip), vehicle: saline with Tween-80) 94 % of control; (dose: 0.78 mg/kg/injection, schedule: Q01DX009 (ip), vehicle: saline with Tween-80) 94 % of control; (dose: 1.56 mg/kg/injection, schedule: Q01DX009 (ip), vehicle: saline with Tween-80) 95 % of control and 108 % of control; (dose: 6.25 mg/kg/injection, schedule: Q01DX009 (ip), vehicle: saline with Tween-80) 88 % of control.

Source of the values: PubChem BioAssay AID248 (DTP/NCI, 2004).
